# In BindingDB's records for doi:10.1021/jm030424e (Isis Pharmaceuticals, 2004):
# Test: Inhibition HCV RNA replication
row,EC50 [µM],SMILES
1,7,"C[C@@]1(O)[C@H](O)[C@@H](CO)O[C@H]1n1cnc2c(N)nc(N)nc21 [(2R,3R,4R,5R)-2-(2,6-diamino-9H-purin-9-yl)-5-(hydroxymethyl)-3-methyloxolane-3,4-diol]"
2,> 50,"C[C@@]1(O)[C@H](O)[C@@H](CO)O[C@H]1n1cnc2cnc(N)nc21 [(2R,3R,4R,5R)-2-(2-amino-9H-purin-9-yl)-5-(hydroxymethyl)-3-methyloxolane-3,4-diol]"
3,> 50,"CC[C@@]1(O)[C@H](O)[C@@H](CO)O[C@H]1n1cnc2c(N)ncnc21 [(2R,3R,4R,5R)-2-(6-amino-9H-purin-9-yl)-3-ethyl-5-(hydroxymethyl)oxolane-3,4-diol]"
4,0.3,"C[C@@]1(O)[C@H](O)[C@@H](CO)O[C@H]1n1cnc2c(N)ncnc21 [(2R,3R,4R,5R)-2-(6-amino-9H-purin-9-yl)-5-(hydroxymethyl)-3-methyl-tetrahydrofuran-3,4-diol]"
5,> 50,"C[C@@]1(O)[C@H](O)[C@@H](CO)O[C@H]1n1cnc2c(=O)[nH]cnc21 [(2R,3R,4R,5R)-2-(6-hydroxy-9H-purin-9-yl)-5-(hydroxymethyl)-3-methyloxolane-3,4-diol]"
6,> 50,"CO[C@]1(C)[C@H](O)[C@@H](CO)O[C@H]1n1cnc2c(N)ncnc21 [(2R,3R,4R,5R)-5-(6-amino-9H-purin-9-yl)-2-(hydroxymethyl)-4-methoxy-4-methyloxolan-3-ol]"
7,> 50,"C[C@@]1(O)[C@H](O)[C@@H](CO)O[C@H]1n1cnc2cncnc21 [(2R,3R,4R,5R)-5-(hydroxymethyl)-3-methyl-2-(9H-purin-9-yl)oxolane-3,4-diol]"
8,> 50,"C[C@]1(O)[C@H](O)[C@@H](CO)O[C@H]1n1cnc2c(N)ncnc21 [(2R,3S,4R,5R)-2-(6-amino-9H-purin-9-yl)-5-(hydroxymethyl)-3-methyloxolane-3,4-diol]"
9,> 50,Nc1ncnc2c1ncn2[C@@H]1O[C@H](CO)[C@@H](O)[C@@H]1O [adenine arabinoside]

# Continued, compound first:
row,SMILES,EC50 [µM]
1,CO[C@@H]1[C@H](O)[C@@H](CO)O[C@H]1n1cnc2c(N)ncnc21,> 50
2,C[C@@]1(O)[C@@H](CO)O[C@@H](n2cnc3c(N)ncnc32)[C@@H]1O,> 50
3,Nc1nc2c(ncn2[C@@H]2O[C@H](CO)[C@H](O)[C@H]2O)c(=O)[nH]1,> 50
4,C[C@]1(O)[C@@H](CO)O[C@@H](n2cnc3c(N)ncnc32)[C@@H]1O,> 50
5,"Nc1nc2c(ncn2[C@@H]2O[C@H](CO)[C@@H](O)[C@H]2F)c(=O)[nH]1 [2-Amino-9-((2R,3R,4R,5R)-3-fluoro-4-hydroxy-5-hydroxymethyl-tetrahydro-furan-2-yl)-1,9-dihydro-purin-6-one]",> 50
6,"CO[C@@H]1[C@H](O)[C@@H](CO)O[C@H]1n1cnc2c(=O)[nH]c(N)nc21 [2-Amino-9-((2R,3R,4R,5R)-4-hydroxy-5-hydroxymethyl-3-methoxy-tetrahydro-furan-2-yl)-1,9-dihydro-purin-6-one]",> 50
7,"Nc1nc2c(ncn2[C@@H]2O[C@H](CO)C[C@H]2O)c(=O)[nH]1 [2-Amino-9-((2R,3R,5S)-3-hydroxy-5-hydroxymethyl-tetrahydro-furan-2-yl)-1,9-dihydro-purin-6-one]",50
8,"Nc1nc2c(ncn2[C@@H]2O[C@H](CO)[C@@H](F)[C@H]2O)c(=O)[nH]1 [2-Amino-9-((2R,3S,4S,5R)-4-fluoro-3-hydroxy-5-hydroxymethyl-tetrahydro-furan-2-yl)-1,9-dihydro-purin-6-one]",> 50
